Where a name gives a salt, the structure may show the parent alone. Read-outs that look alike come from different tables or passages of the source. Blank lines part the entries; values can stand above or below the compound they belong to.
Experiments:
Solubility in water = format: physicochemical
[1] = test system: muscarinic receptors (bronchi); experiment: Receptor binding test in vivo (3H-NMS), bronchi; set-up: species or system rat (female); settings: i.v., in vivo 3H-NMS binding, rat; 30 min
Procedure: (§1) For these experiments, female rats with a body weight of about 200 g were used. Before the start of the experiment the animals were anaesthetised with a dose of 1.25 g/kg of urethane. The animals were given the dosage of test substance by i.v. injection. After 15 minutes, 113 ng/kg of ^3 H-N-methylscopolamine (^3 H-NMS) were given by the same route. After another 15 minutes the animals were killed and their heart, bronchi and lachrymal glands were taken out. These organs were dissolved in Soluene R and the radioactivity was measured. These measurements were taken as representing total binding. […] The ID50 values for the individual organs were determined from these experiments. […]

[2] = biological target: muscarinic receptors (submandibular gland) (Rattus norvegicus, UniProt P08483); experiment: biochemical; format: binding, rat (male Sprague-Dawley); settings: in vitro, 0.3 nmolar 3H-NMS, 45 min, 30° C., read-out: log IC50, Submandibular gland (converted)
Sequence of muscarinic receptors (submandibular gland) (P08483 whole entry): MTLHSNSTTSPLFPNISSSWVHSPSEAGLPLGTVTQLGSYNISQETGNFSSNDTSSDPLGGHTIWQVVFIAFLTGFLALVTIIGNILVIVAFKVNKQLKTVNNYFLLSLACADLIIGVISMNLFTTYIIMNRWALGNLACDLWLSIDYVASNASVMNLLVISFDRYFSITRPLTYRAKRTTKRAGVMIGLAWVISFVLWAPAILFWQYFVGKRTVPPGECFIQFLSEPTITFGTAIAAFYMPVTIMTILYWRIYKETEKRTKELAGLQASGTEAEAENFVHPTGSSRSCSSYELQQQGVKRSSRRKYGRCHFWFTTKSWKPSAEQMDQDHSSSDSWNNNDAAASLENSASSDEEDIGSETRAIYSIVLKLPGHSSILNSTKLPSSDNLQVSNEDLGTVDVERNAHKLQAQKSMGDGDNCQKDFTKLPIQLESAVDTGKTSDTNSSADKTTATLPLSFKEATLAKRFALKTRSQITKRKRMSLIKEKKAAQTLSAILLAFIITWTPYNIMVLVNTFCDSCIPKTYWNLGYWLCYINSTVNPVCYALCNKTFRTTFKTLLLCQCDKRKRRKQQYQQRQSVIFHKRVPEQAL

[3] = biological target: T1, muscarinic receptors (ileum) (Cavia porcellus, UniProt H0W1Z3); experiment: Dissociation constants (KB values) on the isolated ileum; settings: guinea pig, methacholine, 30 minutes contact
T1 construct: from tissue; host or cells: isolated ileum of the guinea pig
T1 sequence (H0W1Z3 1-590): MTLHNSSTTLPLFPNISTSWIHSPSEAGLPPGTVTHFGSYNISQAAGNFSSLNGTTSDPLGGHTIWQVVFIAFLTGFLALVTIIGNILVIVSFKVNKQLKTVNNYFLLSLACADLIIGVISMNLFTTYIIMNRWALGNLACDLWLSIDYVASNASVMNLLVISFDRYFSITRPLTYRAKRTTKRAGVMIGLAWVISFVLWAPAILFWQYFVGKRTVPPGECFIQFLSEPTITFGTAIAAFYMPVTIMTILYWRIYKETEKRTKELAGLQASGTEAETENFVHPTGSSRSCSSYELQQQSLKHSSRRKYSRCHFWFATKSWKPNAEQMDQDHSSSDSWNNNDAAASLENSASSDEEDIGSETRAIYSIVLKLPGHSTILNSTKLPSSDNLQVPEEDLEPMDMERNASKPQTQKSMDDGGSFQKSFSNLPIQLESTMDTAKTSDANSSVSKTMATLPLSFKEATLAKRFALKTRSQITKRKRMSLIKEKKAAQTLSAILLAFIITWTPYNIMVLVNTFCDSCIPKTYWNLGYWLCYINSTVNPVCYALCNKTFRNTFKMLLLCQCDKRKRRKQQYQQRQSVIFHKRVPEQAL
Procedure: (§2) Dissociation constants (KB values) were determined "in vitro" on the ileum and spontaneously beating atrium of the guinea pig. The ileum was taken out and incubated in Krebs-Henseleit solution in an organ bath. Contractions were induced by increasing concentrations of methacholine (M) so that total concentration/activity curves could be recorded. M was then washed out, the test substance was added and kept in contact for 30 minutes and another concentration/activity curve was recorded with M.

[4] = biological target: T2, muscarinic receptors (heart) (Rattus norvegicus, UniProt P10980); experiment: Receptor binding test in vitro, 3H-NMS displacement, whole heart; set-up: species or system rat (male Sprague-Dawley)
T2 construct: The whole heart was cut up with scissors; from tissue; host or cells: whole heart of male Sprague-Dawley rats, homogenate
T2 sequence (P10980 1-466): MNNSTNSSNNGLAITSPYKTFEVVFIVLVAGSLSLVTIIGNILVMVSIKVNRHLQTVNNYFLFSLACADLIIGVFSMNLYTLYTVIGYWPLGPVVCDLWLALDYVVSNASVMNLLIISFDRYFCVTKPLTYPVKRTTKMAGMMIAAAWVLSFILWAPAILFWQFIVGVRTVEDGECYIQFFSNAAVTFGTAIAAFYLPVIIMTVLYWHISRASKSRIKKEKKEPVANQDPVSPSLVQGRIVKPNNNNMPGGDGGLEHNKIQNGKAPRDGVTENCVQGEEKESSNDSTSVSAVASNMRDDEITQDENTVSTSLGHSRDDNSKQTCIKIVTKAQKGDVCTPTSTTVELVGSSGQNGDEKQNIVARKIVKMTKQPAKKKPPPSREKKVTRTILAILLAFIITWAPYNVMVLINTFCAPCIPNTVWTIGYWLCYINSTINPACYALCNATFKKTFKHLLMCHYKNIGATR
Procedure: The organs were donated by male Sprague-Dawley rats weighing 180-220 g. After the heart and submandibular gland had been removed, all other steps were carried out in ice cold Hepes HCl buffer (pH 7.4; 100 mmolar NaCl, 10 mmolar MgCl2). The whole heart was cut up with scissors. All the organs were then homogenised in a Potter apparatus.
For the binding test the homogenised organs were diluted as follows:
The homogenised organs were incubated at a certain concentration of the radioligand and at a series of concentrations of the non-radioactive test substances in an Eppendorf centrifuge tube at 30° C. Incubation lasted 45 minutes. […] Incubation was ended by the addition of ice cold buffer followed by vacuum filtration. The filters were rinsed with cold buffer and their radioactivity was determined. […] Each measurement was taken four times. The IC50 values of the non-labelled test substances were determined graphically.

[5] = test system: muscarinic receptors of the atrium; experiment: Dissociation constants (KB values) on the isolated spontaneously beating right atrium; set-up: species or system guinea pig; settings: guinea pig heart and ileum in vitro
Procedure: as §2
(§3) Dissociation constants for the muscarinic receptors of the atrium were obtained in the manner described above.

[6] = biological target: T3, muscarinic receptors of the atrium (Cavia porcellus, UniProt H0VRN8); experiment: as above; set-up: species or system guinea pig; settings: spontaneously beating atrium, guinea pig, methacholine, 30 minutes contact; read-out: KB, Heart
T3 construct: isolated, spontaneously beating, right atrium; from tissue; host or cells: isolated spontaneously beating right atrium of the guinea pig
T3 sequence (H0VRN8 1-466): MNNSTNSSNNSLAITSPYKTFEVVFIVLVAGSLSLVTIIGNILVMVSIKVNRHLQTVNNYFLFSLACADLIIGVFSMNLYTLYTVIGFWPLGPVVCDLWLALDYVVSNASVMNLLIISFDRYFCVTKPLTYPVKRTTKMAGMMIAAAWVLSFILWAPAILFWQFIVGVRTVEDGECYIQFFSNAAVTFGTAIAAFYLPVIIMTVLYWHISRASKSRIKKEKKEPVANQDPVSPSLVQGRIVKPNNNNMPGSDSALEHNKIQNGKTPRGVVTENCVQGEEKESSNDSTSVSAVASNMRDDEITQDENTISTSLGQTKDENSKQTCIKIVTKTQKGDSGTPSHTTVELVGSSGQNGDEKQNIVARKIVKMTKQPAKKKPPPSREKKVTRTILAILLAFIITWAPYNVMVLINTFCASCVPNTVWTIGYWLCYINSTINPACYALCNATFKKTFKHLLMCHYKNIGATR
Procedure: as §2, §3

[7] = biological target: T4, muscarinic receptors (heart, ventricle) (Rattus norvegicus, UniProt P10980); experiment: Receptor binding test in vivo (3H-NMS), ventricle; set-up: species or system rat (female); settings: iv, 0.5 h, read-out: ID50, Heart, Ventricle
T4 construct: from tissue; host or cells: heart (atrium, ventricle) of female rats, labelled in vivo
T4 sequence (P10980 1-466): T2 sequence (P10980 1-466)
Procedure: as §1

M2 = biological target: T5, M2 (Rattus norvegicus, UniProt P10980); experiment: M2 activity in the rat: inhibition of bradycardia caused by vagus stimulation; format: in vivo, rat (male THOM); settings: iv, 5 min, 50% reduction of vagal bradycardia
T5 construct: The bradycardia caused by vagus stimulation; from tissue; host or cells: heart of the living male THOM rat
T5 sequence (P10980 1-466): T2 sequence (P10980 1-466)
Procedure: The method used was described by Hammer and Giachetti (Life Sciences 31, 2991-2998 (1982)). 5 minutes after the intravenous injection of increasing doses of the substance, either the right vagus was electrically stimulated (frequency: 25 Hz; pulse width: 2 ms; duration of stimulus: 30 s; voltage: supramaximal) or 0.3 mg/kg of McN-A-343 were intravenously injected into male THOM rats. The bradycardia caused by vagus stimulation and the rise in blood pressure caused by McN-A-343 were determined. The dosage of the substances which reduced either the vagal bradycardia (M2) or the rise in blood pressure (M1) by 50% was determined graphically. For the results see Table II.

M1 = biological target: T6, M1 (Rattus norvegicus, UniProt P08482); experiment: M1 activity in the rat: inhibition of rise in blood pressure caused by McN-A-343; format: in vivo, rat (male THOM); settings: iv, 5 min, read-out: M1 activity (rat) ED50
T6 construct: from tissue; host or cells: living male THOM rat (site of action, sympathetic ganglia, is own knowledge)
T6 sequence (P08482 1-460): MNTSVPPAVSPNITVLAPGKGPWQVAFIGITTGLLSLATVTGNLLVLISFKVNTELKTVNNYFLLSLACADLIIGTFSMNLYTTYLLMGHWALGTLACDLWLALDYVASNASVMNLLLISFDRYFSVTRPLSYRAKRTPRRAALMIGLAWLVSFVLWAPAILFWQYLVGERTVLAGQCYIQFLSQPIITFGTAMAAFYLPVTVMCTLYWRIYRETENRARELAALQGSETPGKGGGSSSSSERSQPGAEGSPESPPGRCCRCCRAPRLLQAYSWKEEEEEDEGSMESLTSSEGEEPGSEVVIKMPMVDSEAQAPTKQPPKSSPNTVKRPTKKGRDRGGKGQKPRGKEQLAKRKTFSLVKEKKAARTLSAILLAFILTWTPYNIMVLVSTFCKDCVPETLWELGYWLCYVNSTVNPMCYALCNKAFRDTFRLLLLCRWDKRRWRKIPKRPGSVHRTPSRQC
Procedure: The dosage of the substances which reduced either the vagal bradycardia (M2) or the rise in blood pressure (M1) by 50% was determined graphically. For the results see Table II.

[8] = biological target: T7, muscarinic receptors (heart, atrium) (Rattus norvegicus, UniProt P10980); experiment: Receptor binding test in vivo (3H-NMS), atrium; set-up: species or system rat (female)
T7 construct: from tissue; host or cells: heart (atrium, ventricle) of female rats, labelled in vivo
T7 sequence (P10980 1-466): T2 sequence (P10980 1-466)
Procedure: as §1

[9] = biological target: muscarinic receptors (lachrymal glands) (Rattus norvegicus, UniProt P08483); experiment: in vivo; settings: for ED50: iv, 0.5 h, read-out: ID50, Lachrymal glands
Sequence of muscarinic receptors (lachrymal glands) (P08483 whole entry): as the sequence (P08483 whole entry) above
Procedure: as §1

bladder = experiment: Inhibition of acetylcholine activity on the bladder (contraction of the exposed bladder); format: in vivo, guinea pig; settings: Cavia porcellus, 5 min, read-out: log ED50, Bladder
Procedure: (§4) 5 minutes after the administration of the test substance, 10 mcg/kg of acetylcholine were simultaneously injected intravenously and intra-arterially into anaesthetised guinea pigs. The heart rate was recorded directly by extracorporeal derivation of the ECG, the expiration resistance according to Konzett-Rossler and contraction of the exposed bladder. In order to determine the inhibition of the acetylcholine activity on the organs under investigation, dosage/activity curves were recorded and from them -log ED50 values were determined.

heart rate = experiment: Inhibition of acetylcholine activity on heart rate; format: in vivo, guinea pig; settings: Cavia porcellus, 5 min, read-out: log ED50, Heart
Procedure: as §4

[10] = i.v., 50% reduction of McN-A-343 rise in blood pressure

solubility in water (in words) (Solubility in water): readily soluble in water
Compound: CS(=O)(=O)O.O=C1Nc2cccnc2N(C(=O)N2CCCC(CCCN3CCCCC3)C2)c2ccccc21 (stereo not drawn) [Example 1 methanesulphonate, 5,11-dihydro-11-[[3-[3-(1-piperidinyl)propyl]-1-piperidinyl]carbonyl]-6H-pyrido[2,3-b][1,4]benzodiazepin-6-one-methanesulphonate]

solubility in water (in words) (Solubility in water): water soluble
Compound: CCN(CC)CCCCC1CCCCN1C(=O)N1c2ccccc2C(=O)Nc2cccnc21 (stereo not drawn) [Example 4 dihydrochloride]

IC50 [2]: 20 nM
Kb [3]: 3.23 nM
Selectivity factor: ratio IC50 submandibular gland to IC50 heart [4]: 10
Kb [6]: 0.347 nM
ED50 ([7]; i.v., in vivo 3H-NMS binding): 0.005 mg/kg
ED50 (M2): 0.0069 mg/kg
Ratio of ID50 in the lachrymal glands to ID50 in the atrium ([9]; in vivo binding): 20
Compound: O=C1Nc2cccnc2N(C(=O)N2CCCC(CCCN3CCCCC3)C2)c2ccccc21 (stereo not drawn) [Substance A, 5,11-dihydro-11-[[3-[3-(1-piperidinyl)propyl]-1-piperidinyl]carbonyl]-6H-pyrido[2,3-b][1,4]-benzodiazepin-6-one]
ID50, Bronchi [1]: 0.06 mg/kg
effectiveness compared with X and Y, Table III (in words) [5]: significantly more effective than X and Y
selectivity heart vs smooth muscle, Table III (in words) [5]: a clear selectivity in favour of the heart
ED50 (M1; [10]): 0.049 mg/kg
potency on the heart compared with X and Y, Table IV (in words) ([8]; in vivo binding): significant improvement in potency compared with substances X and Y on the heart

Compound: Cl.O=C1Nc2cccnc2N(C(=O)N2CCCC(CCCN3CCCC3)C2)c2ccccc21 (stereo not drawn) [Substance B, 5,11-dihydro-11-[[3-[3-(1-pyrrolidinyl)propyl]-1-piperidinyl]carbonyl]-6H-pyrido[2,3-b][1,4]benzodiazepin-6-one-hydrochloride]
IC50 [2]: 39.8 nM
Selectivity factor: ratio IC50 submandibular gland to IC50 heart [4]: 4

IC50 [2]: 30.2 nM
Selectivity factor: ratio IC50 submandibular gland to IC50 heart [4]: 10
ED50 (M2): 0.0076 mg/kg
Compound: CS(=O)(=O)O.O=C1Nc2cccnc2N(C(=O)N2CCCC(CCN3CCCCC3)C2)c2ccccc21 (stereo not drawn) [Substance C, 5,11-dihydro-11-[[3-[2-(1-piperidinyl)ethyl]-1-piperidinyl]carbonyl]-6H-pyrido[2,3-b][1,4]benzodiazepin-6-one-methanesulphonate]
ED50 (M1; [10]): 0.039 mg/kg

Compound: O=C1Nc2cccnc2N(C(=O)N2CCCC(CCN3CCCC3)C2)c2ccccc21 (stereo not drawn) [Substance D, 5,11-dihydro-11-[[3-[2-(1-pyrrolidinyl)ethyl]-1-piperidinyl]carbonyl]-6H-pvrido[2,3-b][1,4]benzodiazepin-6-one-hydrochloride]
IC50 [2]: 50.1 nM
Selectivity factor: ratio IC50 submandibular gland to IC50 heart [4]: 8.3

IC50 [2]: 30.2 nM
Selectivity factor: ratio IC50 submandibular gland to IC50 heart [4]: 10
Compound: CN(CCC1CCCN(C(=O)N2c3ccccc3C(=O)Nc3cccnc32)C1)C1CCCC1 (stereo not drawn) [Substance E]

Compound: Cl.O=C1Nc2cccnc2N(C(=O)N2CCCC(CCN3CCCCCC3)C2)c2ccccc21 (stereo not drawn) [Substance F, 5,11-dihydro-11-[[3-[2-(hexahydro-1H-1-azepinyl)ethyl]-1-piperidinyl]carbonyl]-6H-pyrido[2,3-b][1,4]-benzodiazepin-6-one-hydrochloride]
IC50 [2]: 30.2 nM
Selectivity factor: ratio IC50 submandibular gland to IC50 heart [4]: 10

IC50 [2]: 39.8 nM
Selectivity factor: ratio IC50 submandibular gland to IC50 heart [4]: 10
ED50 (M2): 0.00813 mg/kg
Compound: O=C1Nc2ccccc2N(C(=O)N2CCCC(CCN3CCCCC3)C2)c2ncccc21 (stereo not drawn) [Substance G, 6,11-dihydro-11-[[3-[2-(1-piperidinyl)ethyl]-1-piperidinyl]carbonyl]-5H-pyrido[2,3-b][1,5]benzodiazepin-5-one]
ED50 (M1; [10]): 0.00716 mg/kg

Compound: CCN(CC)CC1CCCCN1CC(=O)N1c2ccccc2C(=O)Nc2cccnc21 (stereo not drawn) [Substance X, 11-[[2-[(diethylamino)methyl]-1-piperidinyl]acetyl]-5,11-dihydro-6H-pyrido[2,3-b][1,4]benzodiazepin-6-one]
ED50 [9]: > 30 mg/kg

Compound: CN1[C@@H]2CC[C@H]1C[C@@H](OC(=O)C(CO)c1ccccc1)C2 (stereo partly drawn) [Substance Z, atropine, reference compound]
ID50, Bronchi [1]: 0.1 mg/kg
ED50 (bladder): 0.0933 µmol/kg
Kb [6]: 1.41 nM
ED50 [7]: 0.03 mg/kg
ED50 (heart rate): 0.02 µmol/kg
ED50 (M1): 0.016 mg/kg
ED50 ([8]; iv, 0.5 h, read-out: ID50, Heart, Atrium): 0.08 mg/kg
ED50 [9]: 0.2 mg/kg

From US4931436A, “Condensed diazepinones, processes for preparing them and pharmaceutical compositions containing these compounds” (Dr. Karl Thomae GmbH, priority 1988, dated 1990)
